# Data from paper PMC10924921, “Mi-2β promotes immune evasion in melanoma by activating EZH2 methylation” (Nature Communications, 2024).
# Tests used:
# Assay in all cases: biochemical
# Design in all cases: KINOMEscan active-site competition binding panel (468 kinase assays), per cent of control at 1000 nM
# Settings in all cases: KINOMEscan per cent of control (binding competition); read-out: Percent Control
# [1] = target: T1, JAK1(JH2domain-pseudokinase) (Homo sapiens, UniProt P23458)
# T1 construct: JH2domain-pseudokinase
# T1 sequence (P23458 whole entry): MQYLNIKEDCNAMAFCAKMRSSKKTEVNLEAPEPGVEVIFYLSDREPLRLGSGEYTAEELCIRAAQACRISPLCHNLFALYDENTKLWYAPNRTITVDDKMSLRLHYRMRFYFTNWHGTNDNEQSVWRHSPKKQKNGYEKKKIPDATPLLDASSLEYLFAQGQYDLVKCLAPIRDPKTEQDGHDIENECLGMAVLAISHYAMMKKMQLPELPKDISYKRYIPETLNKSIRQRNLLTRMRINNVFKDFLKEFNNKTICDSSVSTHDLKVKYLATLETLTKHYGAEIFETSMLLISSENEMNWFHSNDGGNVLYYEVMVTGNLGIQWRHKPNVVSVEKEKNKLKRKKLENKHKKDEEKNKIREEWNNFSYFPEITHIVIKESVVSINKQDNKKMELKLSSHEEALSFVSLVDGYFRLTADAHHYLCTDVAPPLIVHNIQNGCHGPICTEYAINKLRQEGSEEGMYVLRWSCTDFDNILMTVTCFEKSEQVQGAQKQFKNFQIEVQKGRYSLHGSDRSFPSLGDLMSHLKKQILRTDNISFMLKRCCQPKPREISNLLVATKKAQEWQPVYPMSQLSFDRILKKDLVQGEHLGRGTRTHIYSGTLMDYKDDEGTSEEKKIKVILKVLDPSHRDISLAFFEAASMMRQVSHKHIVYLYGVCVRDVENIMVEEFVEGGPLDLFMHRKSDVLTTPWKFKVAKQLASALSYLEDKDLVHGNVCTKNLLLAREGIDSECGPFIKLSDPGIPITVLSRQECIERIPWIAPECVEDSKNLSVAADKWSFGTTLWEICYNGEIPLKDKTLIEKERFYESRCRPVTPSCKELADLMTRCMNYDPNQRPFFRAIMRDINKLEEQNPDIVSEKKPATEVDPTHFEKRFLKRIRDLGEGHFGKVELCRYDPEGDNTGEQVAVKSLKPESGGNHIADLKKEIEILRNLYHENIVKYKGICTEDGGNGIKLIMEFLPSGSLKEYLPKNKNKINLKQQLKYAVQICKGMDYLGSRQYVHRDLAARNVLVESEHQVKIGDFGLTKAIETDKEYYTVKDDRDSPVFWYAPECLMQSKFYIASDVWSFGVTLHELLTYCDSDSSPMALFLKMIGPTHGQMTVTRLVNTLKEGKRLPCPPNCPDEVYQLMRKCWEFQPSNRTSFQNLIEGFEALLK
# Text: (§1) Figure S7 / Percent Control
# MKNK2 = MKNK2 (Homo sapiens, UniProt Q9HBH9)
# Text: as §1
# CLK2 = CLK2 (Homo sapiens, UniProt P49760)
# Text: as §1
# PCTK3 = target: T2, PCTK3 (Homo sapiens, UniProt Q07002)
# T2 construct: gene CDK18
# Text: as §1
# TEC = TEC (Homo sapiens, UniProt P42680)
# Text: as §1
# ANKK1 = ANKK1 (Homo sapiens, UniProt Q8NFD2)
# ANKK1, sequence (Q8NFD2 whole entry): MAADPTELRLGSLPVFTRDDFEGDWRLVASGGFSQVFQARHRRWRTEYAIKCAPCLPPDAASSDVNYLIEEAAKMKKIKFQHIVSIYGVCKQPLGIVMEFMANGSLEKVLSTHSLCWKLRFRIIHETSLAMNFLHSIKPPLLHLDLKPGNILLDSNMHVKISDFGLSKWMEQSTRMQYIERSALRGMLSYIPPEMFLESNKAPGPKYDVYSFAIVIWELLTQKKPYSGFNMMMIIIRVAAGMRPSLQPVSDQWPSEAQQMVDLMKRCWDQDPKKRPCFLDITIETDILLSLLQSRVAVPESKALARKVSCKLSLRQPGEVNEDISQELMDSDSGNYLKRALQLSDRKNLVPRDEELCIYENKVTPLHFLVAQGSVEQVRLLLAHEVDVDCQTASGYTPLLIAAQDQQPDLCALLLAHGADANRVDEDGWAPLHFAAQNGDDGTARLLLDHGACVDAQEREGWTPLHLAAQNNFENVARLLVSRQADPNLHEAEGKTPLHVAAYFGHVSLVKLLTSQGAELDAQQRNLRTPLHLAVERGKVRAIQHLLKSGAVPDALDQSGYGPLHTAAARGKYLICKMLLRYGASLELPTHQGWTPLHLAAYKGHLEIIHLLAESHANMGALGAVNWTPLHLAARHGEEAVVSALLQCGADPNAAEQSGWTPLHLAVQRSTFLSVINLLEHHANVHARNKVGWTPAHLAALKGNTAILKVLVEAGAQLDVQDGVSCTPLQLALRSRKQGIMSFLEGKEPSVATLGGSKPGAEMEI
# Text: as §1
# CASK = CASK (Homo sapiens, UniProt O14936)
# Text: as §1
# PRP4 = target: T3, PRP4 (Homo sapiens, UniProt Q13523)
# T3 construct: gene PRPF4B
# Text: as §1
# CHEK1 = CHEK1 (Homo sapiens, UniProt O14757)
# Text: as §1
# NIK = target: T4, NIK (Homo sapiens, UniProt Q99558)
# T4 construct: gene MAP3K14
# Text: as §1
# ERK1 = target: T5, ERK1 (Homo sapiens, UniProt P27361)
# T5 construct: gene MAPK3
# Text: as §1
# FLT3(D835V) = FLT3(D835V) (Homo sapiens, UniProt P36888, D835V)
# Text: as §1
# KIT(L576P) = KIT(L576P) (Homo sapiens, UniProt P10721, L576P)
# KIT(L576P), sequence (P10721 whole entry L576P): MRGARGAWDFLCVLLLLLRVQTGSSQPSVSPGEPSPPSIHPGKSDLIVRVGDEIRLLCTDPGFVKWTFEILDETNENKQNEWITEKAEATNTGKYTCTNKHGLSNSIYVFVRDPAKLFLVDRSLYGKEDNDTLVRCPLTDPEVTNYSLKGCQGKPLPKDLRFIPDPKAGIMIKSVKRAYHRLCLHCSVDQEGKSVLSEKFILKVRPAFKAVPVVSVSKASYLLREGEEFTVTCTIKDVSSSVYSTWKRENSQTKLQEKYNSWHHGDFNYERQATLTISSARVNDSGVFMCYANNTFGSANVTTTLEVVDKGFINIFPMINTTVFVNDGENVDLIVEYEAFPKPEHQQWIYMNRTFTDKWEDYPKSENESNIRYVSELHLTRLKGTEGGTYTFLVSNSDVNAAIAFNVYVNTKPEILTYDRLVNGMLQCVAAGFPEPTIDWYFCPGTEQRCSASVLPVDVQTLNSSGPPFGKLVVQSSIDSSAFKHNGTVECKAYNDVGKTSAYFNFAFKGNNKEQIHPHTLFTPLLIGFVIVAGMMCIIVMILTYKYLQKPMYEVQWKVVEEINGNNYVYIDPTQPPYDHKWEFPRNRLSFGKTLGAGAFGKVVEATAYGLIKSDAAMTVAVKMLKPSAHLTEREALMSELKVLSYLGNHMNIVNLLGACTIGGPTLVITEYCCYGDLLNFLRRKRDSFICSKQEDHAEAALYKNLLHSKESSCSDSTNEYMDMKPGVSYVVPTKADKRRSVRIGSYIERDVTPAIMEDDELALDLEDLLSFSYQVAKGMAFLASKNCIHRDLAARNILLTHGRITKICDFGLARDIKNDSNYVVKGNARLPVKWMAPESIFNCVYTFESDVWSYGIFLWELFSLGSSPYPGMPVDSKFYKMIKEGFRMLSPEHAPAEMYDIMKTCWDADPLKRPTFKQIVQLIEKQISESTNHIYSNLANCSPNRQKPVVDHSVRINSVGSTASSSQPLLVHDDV
# Text: as §1
# PKMYT1 = PKMYT1 (Homo sapiens, UniProt Q99640)
# Text: as §1
# [2] = target: T6, RPS6KA4(Kin.Dom.1-N-terminal) (Homo sapiens, UniProt O75676)
# T6 construct: Kin.Dom.1-N-terminal
# Text: as §1
# DMPK = DMPK (Homo sapiens, UniProt Q09013)
# DMPK, sequence (Q09013 whole entry): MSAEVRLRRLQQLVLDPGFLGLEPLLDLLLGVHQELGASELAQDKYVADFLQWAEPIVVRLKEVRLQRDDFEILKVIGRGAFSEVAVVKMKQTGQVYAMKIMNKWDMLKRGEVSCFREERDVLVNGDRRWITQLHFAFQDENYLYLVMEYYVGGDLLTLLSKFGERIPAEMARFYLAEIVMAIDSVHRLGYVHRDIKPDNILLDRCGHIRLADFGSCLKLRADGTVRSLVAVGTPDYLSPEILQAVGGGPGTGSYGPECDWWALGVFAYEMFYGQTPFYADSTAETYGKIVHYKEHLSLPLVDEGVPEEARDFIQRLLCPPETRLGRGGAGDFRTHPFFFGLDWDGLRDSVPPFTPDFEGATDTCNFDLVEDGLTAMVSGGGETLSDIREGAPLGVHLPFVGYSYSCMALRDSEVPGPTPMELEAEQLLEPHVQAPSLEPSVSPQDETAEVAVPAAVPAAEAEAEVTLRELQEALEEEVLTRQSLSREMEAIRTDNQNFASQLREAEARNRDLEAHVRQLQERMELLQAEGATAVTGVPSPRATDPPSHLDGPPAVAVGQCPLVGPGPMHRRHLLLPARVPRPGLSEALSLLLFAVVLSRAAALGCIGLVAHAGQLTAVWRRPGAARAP
# Text: as §1
# WEE1 = WEE1 (Homo sapiens, UniProt P30291)
# Text: as §1
# MYO3A = MYO3A (Homo sapiens, UniProt Q8NEV4)
# Text: as §1
# CDKL3 = CDKL3 (Homo sapiens, UniProt Q8IVW4)
# Text: as §1
# TGFBR2 = TGFBR2 (Homo sapiens, UniProt P37173)
# Text: as §1
# PRKCH = PRKCH (Homo sapiens, UniProt P24723)
# Text: as §1
# YES = target: T7, YES (Homo sapiens, UniProt P07947)
# T7 construct: gene YES1
# T7 sequence (P07947 whole entry): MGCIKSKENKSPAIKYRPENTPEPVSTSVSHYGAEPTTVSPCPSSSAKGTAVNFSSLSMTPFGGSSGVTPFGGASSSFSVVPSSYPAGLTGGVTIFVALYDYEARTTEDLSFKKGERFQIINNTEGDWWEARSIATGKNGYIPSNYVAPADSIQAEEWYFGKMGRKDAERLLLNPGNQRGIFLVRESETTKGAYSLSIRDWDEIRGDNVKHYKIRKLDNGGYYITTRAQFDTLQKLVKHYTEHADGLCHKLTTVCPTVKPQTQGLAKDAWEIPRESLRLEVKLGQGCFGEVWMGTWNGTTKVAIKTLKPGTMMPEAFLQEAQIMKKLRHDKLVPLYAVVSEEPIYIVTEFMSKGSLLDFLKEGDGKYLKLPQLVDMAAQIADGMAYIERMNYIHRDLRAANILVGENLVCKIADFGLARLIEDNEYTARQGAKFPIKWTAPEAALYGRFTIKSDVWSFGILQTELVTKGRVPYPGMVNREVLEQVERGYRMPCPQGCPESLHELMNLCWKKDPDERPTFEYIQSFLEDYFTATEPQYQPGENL
# Text: as §1
# MARK2 = MARK2 (Homo sapiens, UniProt Q7KZI7)
# MARK2, sequence (Q7KZI7 whole entry): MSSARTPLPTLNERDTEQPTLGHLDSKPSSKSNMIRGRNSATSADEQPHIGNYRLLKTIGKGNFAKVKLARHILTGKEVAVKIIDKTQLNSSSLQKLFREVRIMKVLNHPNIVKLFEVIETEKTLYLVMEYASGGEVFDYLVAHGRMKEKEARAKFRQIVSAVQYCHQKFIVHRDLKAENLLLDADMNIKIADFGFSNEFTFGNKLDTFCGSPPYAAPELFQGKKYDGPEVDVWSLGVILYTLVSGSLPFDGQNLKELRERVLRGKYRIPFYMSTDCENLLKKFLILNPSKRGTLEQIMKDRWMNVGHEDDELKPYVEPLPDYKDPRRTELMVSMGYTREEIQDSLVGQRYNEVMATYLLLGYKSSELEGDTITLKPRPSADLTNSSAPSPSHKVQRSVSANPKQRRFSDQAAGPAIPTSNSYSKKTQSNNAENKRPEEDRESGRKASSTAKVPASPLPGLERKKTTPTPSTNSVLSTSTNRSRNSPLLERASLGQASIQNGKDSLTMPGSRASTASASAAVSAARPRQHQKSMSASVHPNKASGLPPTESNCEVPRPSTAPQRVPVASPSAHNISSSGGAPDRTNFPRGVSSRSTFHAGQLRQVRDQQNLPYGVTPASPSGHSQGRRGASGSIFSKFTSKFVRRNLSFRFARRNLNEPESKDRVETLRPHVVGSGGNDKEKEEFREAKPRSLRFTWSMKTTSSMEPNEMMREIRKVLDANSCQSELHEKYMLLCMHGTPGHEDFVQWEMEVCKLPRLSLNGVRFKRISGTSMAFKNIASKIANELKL
# Text: as §1
# CSNK2A2 = CSNK2A2 (Homo sapiens, UniProt P19784)
# Text: as §1
# IRAK1 = IRAK1 (Homo sapiens, UniProt P51617)
# Text: as §1
structure (smiles),measurement,setting,value
Cn1c(=O)[nH]c2ccc(-c3cccc(C(=O)NC4CCn5ccnc5C4)c3)cc21 (stereo not shown) [Z36-MP5],remaining binding at 1 µM,[1],51%
same,remaining binding at 1 µM,MKNK2,82%
same,remaining binding at 1 µM,CLK2,90%
same,remaining binding at 1 µM,PCTK3,86%
same,remaining binding at 1 µM,TEC,98%
same,remaining binding at 1 µM,ANKK1,60%
same,remaining binding at 1 µM,CASK,60%
same,remaining binding at 1 µM,PRP4,84%
same,remaining binding at 1 µM,CHEK1,93%
same,remaining binding at 1 µM,NIK,46%
same,remaining binding at 1 µM,ERK1,98%
same,remaining binding at 1 µM,FLT3(D835V),55%
same,remaining binding at 1 µM,KIT(L576P),74%
same,remaining binding at 1 µM,PKMYT1,93%
same,remaining binding at 1 µM,[2],90%
same,remaining binding at 1 µM,DMPK,99%
same,remaining binding at 1 µM,WEE1,100%
same,remaining binding at 1 µM,MYO3A,100%
same,remaining binding at 1 µM,CDKL3,59%
same,remaining binding at 1 µM,TGFBR2,94%
same,remaining binding at 1 µM,PRKCH,52%
same,remaining binding at 1 µM,YES,99%
same,remaining binding at 1 µM,MARK2,100%
same,remaining binding at 1 µM,CSNK2A2,63%
same,remaining binding at 1 µM,IRAK1,80%
